Here are results for six compounds from patent US5202350A, “Furanone anti-inflammatory agents” (Bristol-Myers Squibb Co., priority 1991, dated 1993).

Assay [1] concerns the target T1, human platelet phospholipase A2 (Homo sapiens, UniProt P14555).
T1 construct: The enzyme was isolated from human platelets; from tissue; host or cells: human platelets
T1 sequence (P14555 21-144): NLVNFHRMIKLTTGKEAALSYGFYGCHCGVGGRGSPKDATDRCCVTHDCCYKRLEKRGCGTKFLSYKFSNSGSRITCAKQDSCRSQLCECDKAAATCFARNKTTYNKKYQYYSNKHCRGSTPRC
In words: PLA2 Inhibition Assay (14C-oleate labeled E. coli membrane substrate). It is filed as biochemical. The note with it: human platelet PLA2, pH 7, 37° C., 7 min preincubation, 30 min incubation. How it is done:
The utility of the compounds of the instant invention is shown by their inhibitory activity toward human platelet phospholipase A2 and their in vivo anti-inflammatory activity. The activity against human platelet phospholipase A2 was determined as described below:
The method used is similar to that reported by Franson, et al. [Jesse R. L. and Franson R. C., Biochim Biophys Acta 575:467-470 (1979), Franson R. C., Patriarca P., and Elsback P., J Lipid Res 15:380-388 (1974)]. The enzyme was isolated from human platelets. The substrate used consisted of ^14 C-oleate labeled Escherichia coli membranes. E. coli cells were grown in the presence of ^14 C-oleic acid and then autoclaved to prepare the membranes.
Various concentrations of test compounds are preincubated with PLA2 (3.6 μg/ml in a buffer consisting of 25 mM HEPES (pH 7), 150 mM NaCl, 5.0 mM CaCl2, and 10% DMSO (v/v, test compound solvent) at 37° C. for 7 minutes. The E. coli membrane substrate is then added (0.1 mM phospholipid, 0.005 μCi ^14 C) and the reaction is then incubated at 37° C. for 30 minutes. The reaction is terminated by the addition of 1.9 ml tetrahydrofuran (THF), and the entire solution is applied to a solid-phase extraction column (aminopropyl resin, Analytichem). The column is rinsed with an additional 1 ml of THF. The free fatty acid product of the reaction is then eluted from the column with 1 ml of 2% acetic acid (v/v) in THF and collected in a scintillation vial. The amount of free fatty acid product is determined by liquid scintillation counting. The amount of inhibition produced by the test compound is calculated by comparing the counts obtained in the presence of the compound to those obtained in its absence (solvent only). Background counts were determined by performing incubations in the absence of enzyme.
Percent inhibition is determined by the equation: [formula]
IC50 values (the concentration of inhibitor required to produce 50% inhibition) were determined by linear regression analysis of a plot of % inhibition versus log test compound concentration.

Another assay concerns ears of CD-1 mice. In words: Inhibition of Phorbol-Ester-Induced inflammation (TPA ear edema). Conditions: topical, six hours. It is filed as in vivo. An excerpt:
The method used is similar to that reported by Young, et al. [Young J. M., Wagner B. M., Spires D. A., J Invest Dermatol, 80:48-52(1983); DeYound L. M., Kheifets J. B., Ballaron S. J., Young J. M., Agents Actions 26:335-341 (1989)]. An inflammatory reaction is induced by the topical application of 0.01% (w/v) […] (TPA) to the ears of CD-1 mice. An acute inflammatory reaction is produced, resulting in ear edema. TPA, with and without various concentrations of test compound, was applied to the inner and outer aspects of the ear surface (10 μl/surface). After six hours, the mice were sacrificed and the ears removed. Ear tissue punches (5/16") were taken from each ear and weighed to measure edema.
The anti-inflammatory activity of the test compounds was determined by comparing the edema produced by TPA without test compound to that produced in its presence.
Percent inhibition values were determined by the equation: [formula]

In assay [1], `CCCCCCCCCCC1CC(O)OC1=O` (centres unmarked) [Example 3, 3-n-Decyl-5-Hydroxy-3,4-Dihydro-Furan-2-One] gave an IC50 of 525 µM.
As for `CCCCCCCCCCCC1CC(O)OC1=O` (centres unmarked) [Example 5, 3-n-Undecyl-5-Hydroxy-3,4-Dihydro-Furan-2-One], in assay [1], the IC50 worked out at 17 µM. Moreover, in the assay with ears of CD-1 mice (dose 2.6% (w/v)), the “% Inhibition of Ear Edema” value is on record as 34.6%.
The compound `CCCCCCCCCCCCC1CC(O)OC1=O` (centres unmarked) [Example 7, 3-n-Dodecyl-5-Hydroxy-3,4-Dihydro-Furan-2-One] registered an IC50 in assay [1] of 18 µM.
On the same count and under the same terms, for `O=C1OC(O)CC1CCCCCCCc1ccccc1` (centres unmarked) [Example 9] the value was 379 µM.
On to `CCCCCC1CC(O)OC1=O` (centres unmarked) [Example 11, 3-n-Amyl-5-Hydroxy-3,4-Dihyro-Furan-2-One], for which the IC50 in assay [1] is above 500 µM.
`CCCCCCCCCCCCCCCCC1CC(O)OC1=O` (centres unmarked) [Example 13, 3-n-Hexadecyl-5-Hydroxy-3,4-Dihydro-Furan-2-One] came in with an IC50 in assay [1] of 59 µM. The “% Inhibition of Ear Edema” value is on record as 6.8% in the assay on ears of CD-1 mice (dose 2.5% (w/v)), 24.6% in the assay on ears of CD-1 mice (dose 5.0% (w/v)), 33.5% in the assay on ears of CD-1 mice (dose 7.5% (w/v)) and 45% in the assay on ears of CD-1 mice (dose 10% (w/v)).

As a reminder, the IC50 is the concentration that inhibits the measured activity by half. The low end stands for greater potency in that assay, the high end for weaker potency in that assay.
